Assay results as given in patent publication US9499550B2 (BRISTOL-MYERS SQUIBB COMPANY, priority 2012, dated 2016).
Where two headings read alike, the source gives them in different places.

Legend:
[1] = tested on: HCV genotype 1a (H77 strain) replicon in HUH-7 cells; test: HCV replicon luciferase reporter assay, genotype 1a; format: cell-based; conditions: Hepatitis C virus, Huh-7, 72 h, HCV genotype 1a replicon luciferase assay, 3 days incubation
Description: (§1) Generation of HCV Replicon
(§2) An HCV replicon whole cell system was established as described by Lohmann V, Korner F, Koch J, Herian U, Theilmann L, Bartenschlager R., Science 285(5424):110-3 (1999) and modified to introduce a luciferase reporter, as first described by Krieger et al (Krieger N, Lohmann V, and Bartenschlager R, J. Virol. 75(10):4614-4624 (2001)). CDNA encoding a humanized form of the Renilla luciferase gene and a linker sequence fused directly to the 3′-end of the luciferase gene were introduced into the replicon construct using an Asc1 restriction site located in core, directly upstream of the neomycin marker gene. The adaptive mutation at position 1179 (serine to isoleucine) was also introduced (Blight K J, Kolykhalov, A A, Rice, C M, Science 290(5498):1972-1974). A stable cell line constitutively expressing this HCV replicon construct was generated by first linearizing plasmid DNAs with ScaI. RNA transcripts were synthesized in vitro using the T7 MegaScript transcription kit (Ambion, Austin, Tex.) according to manufacturer's directions. In vitro transcripts of the cDNA were transfected into the human hepatoma cell line, HUH-7. […] Resulting cell lines were characterized for positive and negative strand RNA production and protein production over time.
A stable HCV replicon luciferase reporter cell line representing the genotype 1a H77 strain (Yanagi M, Purcell R H, Emerson S U, et al. Transcripts from a single full-length cDNA clone of hepatitis C virus are infectious when directly transfected into the liver of a chimpanzee. Proc Natl Acad Sci USA 1997; 94(16):8738-8743) was generated as described previously for the genotype 1b(Con1) replicon luciferase cell line. The replicon construct was modified by introducing mutations were introduced into the genes encoding the NS3 helicase domain (proline replaced by leucine at position 1496) and NSSA (serine to isoleucine at position 2204) to improve replication in cell culture.
(§3) HCV Replicon Luciferase Reporter Assay
(§4) HCV replicon luciferase assays were developed to monitor the inhibitory effects of compounds described in the disclosure on HCV genotypes 1a and 1b viral replication. HUH-7 cells, constitutively expressing the HCV replicon, were grown in Dulbecco's Modified Eagle Media (DMEM) (Gibco-BRL) containing 10% Fetal calf serum (FCS) (Sigma) and 1 mg/mL G418 (Gibco-BRL). Compounds were serially diluted 3 folds in DMSO for a twenty-point titration and subsequently transferred to sterile 384-well tissue-culture treated plates (Corning cat #3571). The plates were then seeded with 50 μL of cells at a density of 3.0×10^3 cells/well in DMEM containing 4% FCS (final DMSO concentration at 0.5%). After 3 days incubation at 37° C., cells were analyzed for Renilla Luciferase activity using the EnduRen as substrate (Promega cat #E6485). The EnduRen substrate was diluted in DMEM and then added to the plates to a final concentration of 7.5 μM. The plates were incubated for 2 hrs at 37° C. and then read immediately for 30 seconds with Viewlux Imager (PerkinElmer) using a luminescence program. To assess cytotoxicity of compounds, CC50 values were generated by multiplexing the EnduRen-containing plates with Cell Titer-Blue (Promega, cat # G8082). Cell-Titer Blue (3 μL) was added to each well and incubated for 8 hrs at 37° C. The fluorescence signal from each well was read, with an excitation wavelength at 525/10 nm and an emission wavelength of 598/10 nm, using the Viewlux Imager.
(§5) The EC50 values for compounds were calculated by using a four-parameter logistic equation: y=A+((B−A)/(1+((C/x)^D))), where A and B denotes minimal and maximal % inhibition, respectively, C is the EC50, D is the hill slope and x represents compound concentration.

[2] = tested on: HCV genotype 1b (Con1) replicon in HUH-7 cells; test: HCV replicon luciferase reporter assay, genotype 1b; format: cell-based; conditions: Hepatitis C virus, Huh-7, 72 h, HCV genotype 1b replicon luciferase assay, 3 days incubation
Description: as §1
as §2, with “time. […]” for “time.”
as §3, §4, §5

[3] = range class, read-out: LE_1a (EC50, range)
[4] = range class, read-out: LE_1b (EC50, range)

SMILES | EC50 [1, 3] [nM] | EC50 [2, 4] [nM] | EC50 ([1]; read-out: LE_1a (EC50)) [nM] | EC50 ([2]; read-out: LE_1b (EC50)) [nM]
COc1cnc(O[C@@H]2C[C@H]3C(=O)N[C@]4(C(=O)NS(=O)(=O)C5(F)CC5)C[C@H]4/C=C\CC[C@@H](C)C[C@@H](C)[C@H](NC(=O)OC(C)(C)C(F)(F)F)C(=O)N3C2)c2ccccc12 [Compound 14, 1,1,1-trifluoro-2-methylpropan-2-yl((2R,6S,7R,9R,13aS,14aR,16aS,Z)-14a-(((1-fluorocyclopropyl)sulfonyl)carbamoyl)-2-((4-methoxyisoquinolin-1-yl)oxy)-7,9-dimethyl-5,16-dioxo-1,2,3,5,6,7,8,9,10,11,13a,14,14a,15,16,16a-hexadecahydrocyclopropa[e]pyrrolo[1,2-a][1,4]diazacyclopentadecin-6-yl)carbamate] | < 5.46 | < 5.46 | – | –
COc1cnc(O[C@@H]2C[C@H]3C(=O)N[C@]4(C(=O)NS(=O)(=O)C5(F)CC5)C[C@H]4/C=C\CC[C@H](C)C[C@@H](C)[C@H](NC(=O)OC(C)(C)C(F)(F)F)C(=O)N3C2)c2ccccc12 [Compound 15, 1,1,1-trifluoro-2-methylpropan-2-yl((2R,6S,7R,9S,13aS,14aR,16aS,Z)-14a-(((1-fluorocyclopropyl)sulfonyl)carbamoyl)-2-((4-methoxyisoquinolin-1-yl)oxy)-7,9-dimethyl-5,16-dioxo-1,2,3,5,6,7,8,9,10,11,13a,14,14a,15,16,16a-hexadecahydrocyclopropa[e]pyrrolo[1,2-a][1,4]diazacyclopentadecin-6-yl)carbamate] | < 5.46 | < 5.46 | – | –
CCOc1cnc(O[C@@H]2C[C@H]3C(=O)N[C@]4(C(=O)NS(=O)(=O)C5CC5)C[C@H]4/C=C\CC[C@@H](C)C[C@@H](C)[C@H](NC(=O)OC(C)(C)C)C(=O)N3C2)c2ccccc12 [Compound 16, tert-butyl ((2R,6S,7R,9R,13aS,14aR,16aS,Z)-14a-((cyclopropylsulfonyl)carbamoyl)-2-((4-ethoxyisoquinolin-1-yl)oxy)-7,9-dimethyl-5,16-dioxo-1,2,3,5,6,7,8,9,10,11,13a,14,14a,15,16,16a-hexadecahydrocyclopropa[e]pyrrolo[1,2-a][1,4]diazacyclopentadecin-6-yl)carbamate] | < 5.46 | < 5.46 | – | –
CCOc1cnc(O[C@@H]2C[C@H]3C(=O)N[C@]4(C(=O)NS(=O)(=O)C5CC5)C[C@H]4/C=C\CC[C@@H](C)C[C@@H](C)[C@H](NC(=O)OC(C)(C)C(F)(F)F)C(=O)N3C2)c2ccccc12 [Compound 18, 1,1,1-trifluoro-2-methylpropan-2-yl((2R,6S,7R,9R,13aS,14aR,16aS,Z)-14a-((cyclopropylsulfonyl)carbamoyl)-2-((4-ethoxyisoquinolin-1-yl)oxy)-7,9-dimethyl-5,16-dioxo-1,2,3,5,6,7,8,9,10,11,13a,14,14a,15,16,16a-hexadecahydrocyclopropa[e]pyrrolo[1,2-a][1,4]diazacyclopentadecin-6-yl)carbamate] | < 5.46 | < 5.46 | – | –
CC(C)Oc1cnc(O[C@@H]2C[C@H]3C(=O)N[C@]4(C(=O)NS(=O)(=O)C5CC5)C[C@H]4/C=C\CC[C@@H](C)C[C@@H](C)[C@H](NC(=O)OC(C)(C)C(F)(F)F)C(=O)N3C2)c2ccccc12 [Compound 20, 1,1,1-trifluoro-2-methylpropan-2-yl((2R,6S,7R,9R,13aS,14aR,16aS,Z)-14a-((cyclopropylsulfonyl)carbamoyl)-2-((4-isopropoxyisoquinolin-1-yl)oxy)-7,9-dimethyl-5,16-dioxo-1,2,3,5,6,7,8,9,10,11,13a,14,14a,15,16,16a-hexadecahydrocyclopropa[e]pyrrolo[1,2-a][1,4]diazacyclopentadecin-6-yl)carbamate] | < 5.46 | < 5.46 | – | –
C[C@@H]1CC/C=C\[C@@H]2C[C@@]2(C(=O)NS(=O)(=O)C2CC2)NC(=O)[C@@H]2C[C@@H](Oc3ncc(OC4CC4)c4ccccc34)CN2C(=O)[C@@H](NC(=O)OC(C)(C)C)[C@H](C)C1 [Compound 22, tert-butyl ((2R,6S,7R,9R,13aS,14aR,16aS,Z)-2-((4-cyclopropoxyisoquinolin-1-yl)oxy)-14a-((cyclopropylsulfonyl)carbamoyl)-7,9-dimethyl-5,16-dioxo-1,2,3,5,6,7,8,9,10,11,13a,14,14a,15,16,16a-hexadecahydrocyclopropa[e]pyrrolo[1,2-a][1,4]diazacyclopentadecin-6-yl)carbamate] | < 5.46 | < 5.46 | 0.43 | 0.4
C[C@@H]1CC/C=C\[C@@H]2C[C@@]2(C(=O)NS(=O)(=O)C2CC2)NC(=O)[C@@H]2C[C@@H](Oc3ncc(OC4CC4)c4ccccc34)CN2C(=O)[C@@H](NC(=O)OC(C)(C)C(F)(F)F)[C@H](C)C1 [Compound 24, 1,1,1-trifluoro-2-methylpropan-2-yl((2R,6S,7R,9R,13aS,14aR,16aS,Z)-2-((4-cyclopropoxyisoquinolin-1-yl)oxy)-14a-((cyclopropylsulfonyl)carbamoyl)-7,9-dimethyl-5,16-dioxo-1,2,3,5,6,7,8,9,10,11,13a,14,14a,15,16,16a-hexadecahydrocyclopropa[e]pyrrolo[1,2-a][1,4]diazacyclopentadecin-6-yl)carbamate] | < 5.46 | < 5.46 | – | –
C[C@H]1CC/C=C\[C@@H]2C[C@@]2(C(=O)NS(=O)(=O)C2CC2)NC(=O)[C@@H]2C[C@@H](Oc3ncc(OC4CC4)c4ccccc34)CN2C(=O)[C@@H](NC(=O)OC(C)(C)C(F)(F)F)[C@H](C)C1 [Compound 25, 1,1,1-trifluoro-2-methylpropan-2-yl((2R,6S,7R,9S,13aS,14aR,16aS,Z)-2-((4-cyclopropoxyisoquinolin-1-yl)oxy)-14a-((cyclopropylsulfonyl)carbamoyl)-7,9-dimethyl-5,16-dioxo-1,2,3,5,6,7,8,9,10,11,13a,14,14a,15,16,16a-hexadecahydrocyclopropa[e]pyrrolo[1,2-a][1,4]diazacyclopentadecin-6-yl)carbamate] | 4.82 to 103 | 4.82 to 103 | – | –
COc1cnc(O[C@@H]2C[C@H]3C(=O)N[C@]4(C(=O)NS(=O)(=O)C5CC5)C[C@H]4/C=C\CC[C@@H](C)C[C@@H](C)[C@H](NC(=O)OC(C)(C)C(F)(F)F)C(=O)N3C2)c2cccc(Cl)c12 [Compound 27, 1,1,1-trifluoro-2-methylpropan-2-yl((2R,6S,7R,9R,13aS,14aR,16aS,Z)-2-((5-chloro-4-methoxyisoquinolin-1-yl)oxy)-14a-((cyclopropylsulfonyl)carbamoyl)-7,9-dimethyl-5,16-dioxo-1,2,3,5,6,7,8,9,10,11,13a,14,14a,15,16,16a-hexadecahydrocyclopropa[e]pyrrolo[1,2-a][1,4]diazacyclopentadecin-6-yl)carbamate] | < 5.46 | < 5.46 | – | –
